Data set [1] addresses T1, T. aquaticus aminopeptidase T (Thermus aquaticus, UniProt P23341).
T1 construct: 6xHis (C); made in house; host or cells: E. coli BL21(DE3), pET24b(+)
T1 sequence (P23341 with tags, fused parts or gaps): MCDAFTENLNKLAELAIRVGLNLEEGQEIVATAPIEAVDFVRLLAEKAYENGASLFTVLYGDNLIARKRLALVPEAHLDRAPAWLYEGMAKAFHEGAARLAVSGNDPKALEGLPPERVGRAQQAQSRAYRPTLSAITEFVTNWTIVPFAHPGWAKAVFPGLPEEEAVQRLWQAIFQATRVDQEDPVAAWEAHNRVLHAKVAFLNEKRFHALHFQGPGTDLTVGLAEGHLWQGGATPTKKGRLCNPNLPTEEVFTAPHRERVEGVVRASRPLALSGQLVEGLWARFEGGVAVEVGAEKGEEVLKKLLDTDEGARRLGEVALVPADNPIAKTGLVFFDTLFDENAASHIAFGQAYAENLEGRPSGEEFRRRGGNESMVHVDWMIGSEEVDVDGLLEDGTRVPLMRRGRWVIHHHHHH
Format: biochemical. To be noted: 40° C.; for Km / kcat: PBS; for Km: enzyme 2.0625 μM, substrate 0.0625-2 mM, Lineweaver-Burke plot; for kcat: kcat=Vmax/[E]; for on-time (min) / on-time (s): calculated as 1/kcat. The protocol:
(§1) The kinetic parameters from T. aquaticus aminopeptidase T for cleaving different amino acid substrates was determined with a p-nitroanilide assay. Substrates consist of an N-terminal amino acid with a p-nitroanilide attached to its C-terminus. Upon amino acid cleavage, the free nitroanilide can be monitored by measuring the absorbance at 405 nm. T. aquaticus aminopeptidase T as depicted in SEQ ID No 8 was added in a concentration of 2.0625 μM (in PBS) to different concentrations of amino acid p-nitroanilide substrate (0.0625, 0.125, 0.25, 0.5, 1 and 2 mM in PBS). Subsequently p-nitroanilide release was continuously measured at 40° C. with a FLUOstar Omega microplate reader (MBG LabTech). From this, the initial velocity of the reaction at each substrate concentration was derived (v0). For each amino acid, a Lineweaver-Burke plot was generated from which the reaction Vmax and enzyme-substrate KM was determined. The turnover number, kcat, was calculated from the Vmax and the enzyme concentration (kcat=Vmax/[E]). The enzyme on-time value was then calculated by taking the reciprocal from the kcat value. The “on-time” values as shown in Table 1 are calculated as 1/kcat and as such is the overall time needed for an enzyme solution on the peptide until catalysis occurs.
(§2) The assays were performed at 40° C. below the enzyme's temperature optimum. Working more closely to the optimal temperature of 70° C. speeds up the reaction speed (kcat and enzyme on-time). […] The results as shown here not only validate the utility of the aminopeptidase as disclosed herein but also underpin and substantiate the methods and uses disclosed in current application.

Data set [2] deals with T1, T. aquaticus aminopeptidase T. Kind of data set: Aminopeptidase assay with different amino acid p-nitroanilide substrates at 40° C. and 80° C. Format: biochemical. To be noted: 2 h, PBS, substrate 1.5 mM. The protocol:
FIG. 11. Aminopeptidase assay with different amino acid p-nitroanilide substrates. Enzyme and substrate (1.5 mM) were incubated for 2 h at 40° C. or 80° C. in PBS, after which the released p-nitroanilide was quantified by measuring the absorbance at 405 nm.
As described herein and in line with the invention described in current application, the activity differs between different amino acids. At 80° C., the panel of amino acid substrates can be roughly divided in fast-cleaved (L, M, Y, R, F) and slow-cleaved (D, P) substrates. However, at 40° C. it seems like the panel is divided in fast-cleaved (Y, R) and slow-cleaved (D, P), and substrates that lie in between (L, M, F). […] Finally, TagAPT is not only active in the p-nitroanilide assay. […] The N-terminal amino acid from peptides with proline at the second position is not easily cleaved since peptide bonds adjacent to the amino acid proline are resistant to cleavage by most peptidases (Iyver et al. 2015 FEBS Open Bio. 2015 Apr. 2; 5:292-302). In contrast to what Is stated in Minagawa et al (1988 Agricultural and Biological Chemistry 52:1755-1763) we show here that T. aquaticus aminopeptidase T can cleave N-terminal amino acids even when proline is at the second position. This surprising finding greatly enhances the generic use of Tag-APT in the method and uses disclosed in current application and in single molecule peptide sequencing in general.

The nature of data set [3]: Spontaneous Edman degradation (SPITC-induced cleavage) of amino acid p-nitroanilide substrates. To be noted: 30 min at 40° C., 300 mM triethanolamine in 50% acetonitrile (pH 9). The procedure:
FIG. 16. Spontaneous Edman degradation of different amino acid p-nitroanilide substrates. A. Sulfophenyl isothiocyanate (SPITC, 15 mM) and substrate (1.5 mM) were incubated for 30 min at 40° C. in 300 mM triethanolamine in 50% ACN, after which the released p-nitroanilide was quantified by measuring the absorbance at 405 nm. B. Time-kinetic measurement of SPITC-induced amino acid p-nitroanilide substrate cleavage.
Importantly, this spontaneous cleavage activity is also observed under conditions that are not typically used during the cleavage step in the classic Edman degradation reaction. In classic Edman degradation. ITC coupling is achieved under mild alkaline conditions (pyridine, trimethylamine, N-methylpiperidine) and amino acid cleavage under acidic conditions (trifluoroacetic acid). Here both ITC coupling and amino acid cleavage is achieved under mild alkaline conditions (triethanolamine).

Substrate in data set [4]: CC(C)C[C@H](N)C(=O)Nc1ccc([N+](=O)[O-])cc1
Kind of data set: purified protein, by the assay type. In kind it is biochemical. To be noted: other: 40° C., PBS, enzyme 2.0625 μM, substrate 0.0625-2 mM, Lineweaver-Burke plot. The protocol:
as §1, §2

A word on the Km: it is the substrate concentration at which the rate is half of its maximum. As usually defined, the kcat is the number of substrate molecules converted per active site and unit of time at saturation. Take `C[C@H](N)C(=O)Nc1ccc([N+](=O)[O-])cc1` [Ala]: in data set [1], the Km was determined as 736 µM, the kcat was 0.01167 s⁻¹, the “on-time (min)” value was 1.4 min and the “on-time (s)” value is reported as 86 s.

On to `NC(N)=NCCC[C@H](N)C(=O)Nc1ccc([N+](=O)[O-])cc1` [Arg], for which, in data set [1], the Km was found to be 415 µM, the kcat was found to be 0.01638 s⁻¹, the “on-time (min)” value is given as 1.0 min and the “on-time (s)” value is reported as 61 s. Further, in data set [2] (40° C.), the “cleavage speed category of substrate” value was “fast-cleaved”. Further, in data set [2] (80° C.), the “cleavage speed category of substrate” value is given as “fast-cleaved”. For the same molecule, the “cleavage speed category of substrate (endpoint activity measurement)” value in data set [3] is recorded as “fast-cleaved”.

On to `N[C@@H](CC(=O)O)C(=O)Nc1ccc([N+](=O)[O-])cc1` [D], for which the “cleavage speed category of substrate” value in data set [2] (40° C.) and in data set [2] (80° C.) was “slow-cleaved” in each case. Further, the “cleavage speed category of substrate (endpoint activity measurement)” value in data set [3] is “slow-cleaved”.

For the molecule `N[C@@H](Cc1ccccc1)C(=O)Nc1ccc([N+](=O)[O-])cc1` [F], the entries for the “cleavage speed category of substrate” value in data set [2] (40° C.) and in data set [2] (80° C.) were “in between” and “fast-cleaved”, respectively. Further, the “cleavage speed category of substrate (endpoint activity measurement)” value in data set [3] is reported as “fast-cleaved”.

Consider `NCC(=O)Nc1ccc([N+](=O)[O-])cc1` [Gly], for which, in data set [1], the Km is 765 µM, the kcat was determined as 0.00307 s⁻¹, the “on-time (min)” value is 5.4 min and the “on-time (s)” value is 326 s.

On to `CC(C)C[C@H](N)C(=O)Nc1ccc([N+](=O)[O-])cc1` [Leu, L-leucine-p-nitroanilide], for which, in data set [1], the “on-time (min)” value is recorded as 6.5 min. The “on-time (s)” value in data set [1] is 390 s. The “cleavage speed category of substrate” value in data set [2] (40° C.) is listed as “in between”; in data set [2] (80° C.), “fast-cleaved”. In addition, the “cleavage speed category of substrate (endpoint activity measurement)” value in data set [3] is given as “fast-cleaved”.

As to `NCCCC[C@H](N)C(=O)Nc1ccc([N+](=O)[O-])cc1` [Lys], in data set [1], the Km was 193 µM, the kcat came out at 0.00148 s⁻¹, the “on-time (min)” value is reported as 11.3 min and the “on-time (s)” value was 677 s.

Consider `CSCC[C@H](N)C(=O)Nc1ccc([N+](=O)[O-])cc1` [Met], for which, in data set [1], the Km turned out to be 99 µM, the kcat was determined as 0.00471 s⁻¹, the “on-time (min)” value is 3.5 min and the “on-time (s)” value is given as 212 s. Further, the “cleavage speed category of substrate” value in data set [2] (40° C.) was “in between”. The “cleavage speed category of substrate” value in data set [2] (80° C.) was “fast-cleaved”. Besides, in data set [3], the “cleavage speed category of substrate (endpoint activity measurement)” value was “fast-cleaved”.

Consider `O=C(Nc1ccc([N+](=O)[O-])cc1)[C@@H]1CCCN1` [Pro], for which, in data set [1], the Km stood at 546 µM, the kcat was determined as 0.00198 s⁻¹, the “on-time (min)” value was 8.4 min and the “on-time (s)” value is recorded as 504 s. Further, the “cleavage speed category of substrate” value in data set [2] (40° C.) is given as “slow-cleaved”. The “cleavage speed category of substrate” value in data set [2] (80° C.) is “slow-cleaved”. Besides, in data set [3], the “cleavage speed category of substrate (endpoint activity measurement)” value was “slow-cleaved”.

As for `N[C@@H](Cc1ccc(O)cc1)C(=O)Nc1ccc([N+](=O)[O-])cc1` [Tyr], in data set [1], the Km came to 211 µM, the kcat turned out to be 0.00707 s⁻¹, the “on-time (min)” value is 2.4 min and the “on-time (s)” value is 142 s. Also, the “cleavage speed category of substrate” value in data set [2] (40° C.) is “fast-cleaved”. Also, the “cleavage speed category of substrate” value in data set [2] (80° C.) is recorded as “fast-cleaved”. For the same molecule, the “cleavage speed category of substrate (endpoint activity measurement)” value in data set [3] is given as “fast-cleaved”.

As to `CC(C)[C@H](N)C(=O)Nc1ccc([N+](=O)[O-])cc1` [Val], in data set [1], the Km turned out to be 192 µM, the kcat was 0.00138 s⁻¹, the “on-time (min)” value is 12.1 min and the “on-time (s)” value is 727 s.

B1: T. aquaticus aminopeptidase T (Thermus aquaticus) (protein)
chain: MCDAFTENLNKLAELAIRVGLNLEEGQEIVATAPIEAVDFVRLLAEKAYENGASLFTVLYGDNLIARKRLALVPEAHLDRAPAWLYEGMAKAFHEGAARLAVSGNDPKALEGLPPERVGRAQQAQSRAYRPTLSAITEFVTNWTIVPFAHPGWAKAVFPGLPEEEAVQRLWQAIFQATRVDQEDPVAAWEAHNRVLHAKVAFLNEKRFHALHFQGPGTDLTVGLAEGHLWQGGATPTKKGRLCNPNLPTEEVFTAPHRERVEGVVRASRPLALSGQLVEGLWARFEGGVAVEVGAEKGEEVLKKLLDTDEGARRLGEVALVPADNPIAKTGLVFFDTLFDENAASHIAFGQAYAENLEGRPSGEEFRRRGGNESMVHVDWMIGSEEVDVDGLLEDGTRVPLMRRGRWVIHHHHHH
notes: 6xHis (C); made in house; host or cells: E. coli BL21(DE3), pET24b(+)
As a reminder, the kcat/Km is the second-order rate constant that governs catalysis at low substrate concentration. As to B1, in data set [4], the Km is 0.092 mM, the kcat came to 0.00256 s⁻¹ and the kcat/Km is 27.9 M⁻¹ s⁻¹.

(Values after patent US12422438B2, “Means and methods for single molecule peptide sequencing” (VIB VZW, priority 2017, dated 2025).)
